# From ChEMBL document CHEMBL3407414, “Discovery of AZD3147: a potent, selective dual inhibitor of mTORC1 and mTORC2” (J Med Chem, 2015)
# What was measured:
# [1] = Lipophilicity, log D of the compound; format: physicochemical; conditions: octanol/water
# [2] = Intrinsic clearance in human hepatocytes assessed per million cells; format: ADME, cell-based, Hepatocyte; conditions: read-out: CLH
# human MDR1 [3] = assay: Apparent permeability from apical to basolateral side of MDCK2 cells expressing human MDR1 at 10 uM; format: ADME, cell-based, Canis lupus familiaris, MDCK-II; conditions: dog, MDCK-MDR1
# human MDR1 [4] = assay: Apparent permeability from basolateral to apical side of MDCK2 cells expressing human MDR1 at 10 uM; format: ADME, cell-based, Canis lupus familiaris, MDCK-II; conditions: dog, MDCK-MDR1
# [5] = Oral bioavailability in Beagle dog at 3 to 10 umol/kg; format: ADME, organism-based, Canis lupus familiaris; conditions: in vivo
# [6] = Clearance in Beagle dog at 1 to 3 umol/kg, iv; format: ADME, organism-based, Canis lupus familiaris; conditions: in vivo
# [7] = Oral bioavailability in CD-1 mouse at 5 to 20 umol/kg; format: ADME, organism-based; conditions: in vivo
# [8] = Volume of distribution at steady state in CD-1 mouse; format: ADME, organism-based; conditions: in vivo, read-out: Vdss
# [9] = Half life in CD-1 mouse; format: ADME, organism-based; conditions: in vivo
# [10] = Clearance in CD-1 mouse at 2.5 to 10 umol/kg, iv; format: ADME, organism-based; conditions: in vivo
# [11] = Half life in Beagle dog; format: ADME, organism-based, Canis lupus familiaris; conditions: in vivo
# [12] = Volume of distribution at steady state in Beagle dog; format: ADME, organism-based, Canis lupus familiaris; conditions: in vivo, read-out: Vdss
SMILES,logD [1],also measured
CS(=O)(=O)Cc1cc(N2CCOCC2)nc(-c2ccc(NC(=O)Nc3ccc(F)cc3)cc2)n1,> 3.2,
CC(C)NC(=O)Nc1ccc(-c2nc(CS(C)(=O)=O)cc(N3CCOC[C@@H]3C)n2)cc1,2.45,
C[C@H]1COCCN1c1cc(CS(C)(=O)=O)nc(-c2ccc(NC(=O)NCCO)cc2)n1,1,
C[C@H]1COCCN1c1cc(CS(C)(=O)=O)nc(-c2ccc(NC(=O)NCCN(C)C)cc2)n1,0.3,
C[C@H]1COCCN1c1cc(CS(C)(=O)=O)nc(-c2ccc(NC(=O)Nc3ccccc3)cc2)n1,3.3,
C[C@H]1COCCN1c1cc(CS(C)(=O)=O)nc(-c2ccc(NC(=O)Nc3ccc(F)cc3)cc2)n1,3.8,
COc1ccc(NC(=O)Nc2ccc(-c3nc(CS(C)(=O)=O)cc(N4CCOC[C@@H]4C)n3)cc2)cc1,2.88,
C[C@H]1COCCN1c1cc(CS(C)(=O)=O)nc(-c2ccc(NC(=O)Nc3cnn(C)c3)cc2)n1,1.85,
COc1ccc(CNC(=O)Nc2ccc(-c3nc(CS(C)(=O)=O)cc(N4CCOC[C@@H]4C)n3)cc2)cc1,2.8,
CNC(=O)Nc1ccc(-c2nc(CS(=O)(=O)c3ccccc3)cc(N3CCOC[C@@H]3C)n2)cc1,2.65,
CNC(=O)Nc1ccc(-c2nc(CS(=O)(=O)c3ccncc3)cc(N3CCOC[C@@H]3C)n2)cc1,2.1,
CNC(=O)Nc1ccc(-c2nc(CS(C)(=O)=O)cc(N3CCOC[C@@H]3C)n2)cc1OC,1.79,
CNC(=O)Nc1ccc(-c2nc(CS(C)(=O)=O)cc(N3CCOC[C@@H]3C)n2)cc1C,1.5,
CNC(=O)Nc1ccc(-c2nc(N3CCOC[C@@H]3C)cc(C(C)(C)S(C)(=O)=O)n2)cc1,,hepatocyte CLint [2]: 36.3 µL/min/1e6 cells
C[C@H]1COCCN1c1cc(C(C)(C)S(C)(=O)=O)nc(-c2ccc(NC(=S)NCCO)cc2)n1,2.15,
C[C@H]1COCCN1c1cc(C2(S(=O)(=O)c3ccc(F)cc3)CC2)nc(-c2ccc(NC(=O)NCCO)cc2)n1,3.01,
C[C@H]1COCCN1c1cc(C2(S(=O)(=O)c3ccccc3)CC2)nc(-c2ccc(NC(=O)NCCO)cc2)n1,2.8,Papp A→B at 10 µM (human MDR1 [3]): 0.18 ×10⁻⁶ cm/s; Papp B→A at 10 µM (human MDR1 [4]): 24 ×10⁻⁶ cm/s
C[C@H]1COCCN1c1cc(C2(S(=O)(=O)c3ccccc3)CC2)nc(-c2ccc(NC(=O)NCCCO)cc2)n1,2.85,Papp A→B at 10 µM (human MDR1 [3]): 0.15 ×10⁻⁶ cm/s; Papp B→A at 10 µM (human MDR1 [4]): 31 ×10⁻⁶ cm/s
C[C@H]1COCCN1c1cc(C2(S(=O)(=O)CCCO)CC2)nc(-c2ccc(NC(=S)NCCO)cc2)n1,1.6,
CNC(=O)c1cccc(-c2ccc3c(N4CCOC[C@@H]4C)nc(N4CCOC[C@@H]4C)nc3n2)c1 [VISTUSERTIB],,hepatocyte CLint [2]: < 4.2 µL/min/1e6 cells

# More lines, main results first:
logD [1],SMILES,also measured
1.93,CCNC(=O)Nc1ccc(-c2nc(CS(C)(=O)=O)cc(N3CCOC[C@@H]3C)n2)cc1,
1.54,CNC(=O)Nc1ccc(-c2nc(CS(C)(=O)=O)cc(N3CCOC[C@@H]3C)n2)cc1,
1.9,C[C@H]1COCCN1c1cc(CS(C)(=O)=O)nc(-c2ccc(NC(=O)NC3CC3)cc2)n1,
2,CNC(=O)Nc1ccc(-c2nc(CS(=O)(=O)C3CC3)cc(N3CCOC[C@@H]3C)n2)cc1,
3.6,CNC(=O)Nc1ccc(-c2nc(CS(=O)(=O)C3CCCCC3)cc(N3CCOC[C@@H]3C)n2)cc1,
1.7,C[C@H]1COCCN1c1cc(CS(=O)(=O)CCCO)nc(-c2ccc(NC(=O)NC3CC3)cc2)n1,
1.74,C[C@H]1COCCN1c1cc(CS(C)(=O)=O)nc(-c2ccc(NC(=S)NC3CC3)cc2)n1,
2.62,C[C@H]1COCCN1c1cc(C(C)(C)S(C)(=O)=O)nc(-c2ccc(NC(=O)NC3CC3)cc2)n1,hepatocyte CLint [2]: 50 µL/min/1e6 cells
2.62,C[C@H]1COCCN1c1cc(C2(S(C)(=O)=O)CC2)nc(-c2ccc(NC(=O)NC3CC3)cc2)n1,hepatocyte CLint [2]: 37.8 µL/min/1e6 cells
3.3,C[C@H]1COCCN1c1cc(C2(S(C)(=O)=O)CCC2)nc(-c2ccc(NC(=O)NC3CC3)cc2)n1,
> 3.4,C[C@H]1COCCN1c1cc(C2(S(C)(=O)=O)CCCC2)nc(-c2ccc(NC(=O)NC3CC3)cc2)n1,
2.8,C[C@H]1COCCN1c1cc(C2(S(C)(=O)=O)CCOCC2)nc(-c2ccc(NC(=O)NC3CC3)cc2)n1,
2.4,C[C@H]1COCCN1c1cc(C2(S(C)(=O)=O)CCC2)nc(-c2ccc(NC(=O)NCCO)cc2)n1,
2.4,C[C@H]1COCCN1c1cc(C2(S(=O)(=O)CCCO)CC2)nc(-c2ccc(NC(=O)NC3CC3)cc2)n1,
2.94,C[C@H]1COCCN1c1cc(C2(S(=O)(=O)C3CC3)CC2)nc(-c2ccc(NC(=O)NC3CC3)cc2)n1,
2.5,CNC(=O)Nc1ccc(-c2nc(N3CCOC[C@@H]3C)cc(C3(S(=O)(=O)c4ccncc4)CC3)n2)cc1,
2.1,C[C@H]1COCCN1c1cc(C2(S(=O)(=O)C3CC3)CC2)nc(-c2ccc(NC(=O)NCCO)cc2)n1,
1.78,C[C@H]1COCCN1c1cc(C2(S(C)(=O)=O)CC2)nc(-c2ccc(NC(=S)NCCO)cc2)n1,Papp A→B at 10 µM (human MDR1 [3]): 0.07 ×10⁻⁶ cm/s; Papp B→A at 10 µM (human MDR1 [4]): 17 ×10⁻⁶ cm/s
2.1,C[C@H]1COCCN1c1cc(C2(S(=O)(=O)C3CC3)CC2)nc(-c2ccc(NC(=S)NCCO)cc2)n1,bioavailability [5]: 73%; clearance [6]: 16 mL/min/kg; Papp A→B at 10 µM (human MDR1 [3]): 5.6 ×10⁻⁶ cm/s; bioavailability [7]: 61%; Vd [8]: 2.3 L/kg; half-life [9]: 0.9 h; clearance [10]: 8 mL/min/kg; half-life [11]: 1.9 h; Papp B→A at 10 µM (human MDR1 [4]): 43 ×10⁻⁶ cm/s; Vd [12]: 2 L/kg
2.2,C[C@H]1COCCN1c1cc(C2(S(=O)(=O)CCCO)CC2)nc(-c2ccc(NC(=S)NC3CC3)cc2)n1,Papp A→B at 10 µM (human MDR1 [3]): 0.18 ×10⁻⁶ cm/s; Papp B→A at 10 µM (human MDR1 [4]): 22 ×10⁻⁶ cm/s
